Measured values from article PMC7044277 (Nature Communications, 2020).
“And” between values parts separate entries of the source, which are not always exact repeats. Equal values may be shown once.

What was measured:
Format in all cases: cell-based
320 non-olfactory GPCRs [1] = biological target: 320 non-olfactory GPCRs (Homo sapiens, UniProt P35414)
320 non-olfactory GPCRs [2] = biological target: T1, 320 non-olfactory GPCRs (Homo sapiens, UniProt O00574)
T1 construct: expressed in transfected cells; host or cells: HTLA cells

320 non-olfactory GPCRs [3] = biological target: T2, 320 non-olfactory GPCRs (Homo sapiens, UniProt P47871)
T2 construct: expressed in transfected cells; host or cells: HTLA cells

320 non-olfactory GPCRs [4] = biological target: T3, 320 non-olfactory GPCRs (Homo sapiens, UniProt Q92847)
T3 construct: expressed in transfected cells; host or cells: HTLA cells
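Further: compound tested at 1 µM final concentration.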

T1 sequence (O00574 whole entry): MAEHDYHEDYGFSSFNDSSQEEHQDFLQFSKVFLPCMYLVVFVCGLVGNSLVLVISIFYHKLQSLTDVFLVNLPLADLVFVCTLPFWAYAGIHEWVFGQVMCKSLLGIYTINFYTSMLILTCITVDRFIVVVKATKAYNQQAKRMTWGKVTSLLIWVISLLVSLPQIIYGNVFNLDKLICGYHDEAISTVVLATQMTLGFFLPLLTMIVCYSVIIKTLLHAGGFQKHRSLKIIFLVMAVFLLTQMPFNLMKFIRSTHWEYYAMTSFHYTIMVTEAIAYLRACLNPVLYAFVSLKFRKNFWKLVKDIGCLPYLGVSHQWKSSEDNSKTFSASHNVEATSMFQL
T2 sequence (P47871 26-477): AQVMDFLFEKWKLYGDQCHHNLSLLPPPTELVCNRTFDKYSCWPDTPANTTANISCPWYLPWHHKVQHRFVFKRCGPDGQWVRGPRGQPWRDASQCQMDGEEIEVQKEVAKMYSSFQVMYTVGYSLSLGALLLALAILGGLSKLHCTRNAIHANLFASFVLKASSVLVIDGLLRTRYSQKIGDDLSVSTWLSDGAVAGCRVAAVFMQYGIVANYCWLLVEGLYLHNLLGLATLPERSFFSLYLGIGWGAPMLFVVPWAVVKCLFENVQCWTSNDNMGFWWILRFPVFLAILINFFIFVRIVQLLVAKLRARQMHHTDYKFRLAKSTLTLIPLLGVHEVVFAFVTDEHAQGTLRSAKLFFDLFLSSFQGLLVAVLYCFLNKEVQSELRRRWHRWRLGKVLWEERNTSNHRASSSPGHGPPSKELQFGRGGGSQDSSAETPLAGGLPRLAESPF
T3 sequence (Q92847 whole entry): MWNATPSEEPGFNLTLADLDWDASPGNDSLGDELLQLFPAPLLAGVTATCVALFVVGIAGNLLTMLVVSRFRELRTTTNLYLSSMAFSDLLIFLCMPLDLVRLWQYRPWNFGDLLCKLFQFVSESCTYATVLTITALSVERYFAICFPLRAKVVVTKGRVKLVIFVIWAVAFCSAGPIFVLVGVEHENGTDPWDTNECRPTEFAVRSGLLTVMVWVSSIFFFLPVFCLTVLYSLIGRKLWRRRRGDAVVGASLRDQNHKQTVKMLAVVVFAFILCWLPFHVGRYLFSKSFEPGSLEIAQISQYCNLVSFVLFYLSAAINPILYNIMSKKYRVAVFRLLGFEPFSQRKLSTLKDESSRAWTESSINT
320 non-olfactory GPCRs (Homo sapiens, UniProt P35414), sequence (P35414 whole entry): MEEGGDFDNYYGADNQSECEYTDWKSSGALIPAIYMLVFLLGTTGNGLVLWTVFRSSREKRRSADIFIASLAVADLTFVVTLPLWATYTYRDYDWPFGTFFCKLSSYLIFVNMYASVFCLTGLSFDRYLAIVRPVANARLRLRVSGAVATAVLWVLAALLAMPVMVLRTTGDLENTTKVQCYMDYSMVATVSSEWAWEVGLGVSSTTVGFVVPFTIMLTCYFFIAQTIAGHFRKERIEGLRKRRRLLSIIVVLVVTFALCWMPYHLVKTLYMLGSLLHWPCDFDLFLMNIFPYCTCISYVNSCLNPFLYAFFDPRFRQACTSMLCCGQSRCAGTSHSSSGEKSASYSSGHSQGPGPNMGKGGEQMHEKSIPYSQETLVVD

CCOc1cccc2cc(C(C)NCC3(O)CCCCC3)oc12 (stereo not shown) [O4LE6]
Fold of Basal (320 non-olfactory GPCRs [1]): 1.057 and 1.1216 and 0.9447 and 1.032 | Fold of Basal (320 non-olfactory GPCRs [2]): 0.9849 and 0.6404 and 1.204 and 0.796 | Fold of Basal (320 non-olfactory GPCRs [3]): 1.104 and 0.7209 and 1.128 and 1.0533 | Fold of Basal (320 non-olfactory GPCRs [4]): 0.8362 and 0.6901 and 0.8172 and 0.8114
